Where two headings read alike, the source gives them in different places.
Assays:
[1] = test system: Stubenfliegen-Larven (Musca domestica); experiment: Breeding test with housefly larvae on treated nutrient medium; type: in vivo; conditions: development observed over one week; for mortality at 10 µg/mL / mortality at 25 µg/mL: Musca domestica, 168 h, read-out: Mortalitätsrate; for mortality at 10 µg/mL: Wirkstoffkonzentration 10 ppm; for mortality at 25 µg/mL: Wirkstoffkonzentration 25 ppm; for Mortalitätsrate: Wirkstoffkonzentration 50 ppm
Protocol: Zuchtversuch mit Stubenfliegen-Larven (Musca domestica)
50 g eines Nährbodens aus Bäckerhefe, Trockenmilch, Wasser und Agar werden in warmem Zustand gründlich mit der wäßrigen Wirkstoffaufbereitung gemischt.
Nach dem Erkalten belegt man den Nährboden mit ca. 0,1 ml Fliegeneiern und beobachtet deren Entwicklung über eine Woche.

Blattläuse (Aphis fabae) = conditions: evaluated after 24 hours
[2] = test system: Spinnmilben (Tetranychus telarius); experiment: whole plant or invertebrate; conditions: 144 h, read-out: Mortalitätsrate
[3] = test system: Wurzelgallennemathoden (Meloidogyne incognita); experiment: Action on root-knot nematodes, drench of tomato plants in infested compost soil; type: in vivo; conditions: 30 ml drench, roots rated after 6 to 8 weeks
Protocol: Wirkung auf Wurzelgallennemathoden (Meloidogyne incognita)
Junge Tomatenpflanzen werden in je 500 g Komposterde gepflanzt, die stark mit Wurzelgallennematoden infiziert ist.
Nach 3 Tagen erfolgt die Behandlung mit der wäßrigen Wirkstoffaufbereitung durch Gießen von 30 ml Aufbereitung.
Nach 6 bis 8 Wochen bonitiert man die Wurzeln auf Gallenbildung.

[4] = test system: Moskito-Larven (Aedes aegypti); experiment: whole plant or invertebrate; conditions: 24 h, read-out: Mortalitätsrate
[5] = test system: Spinnmilben (Tetranychus telarius); conditions: assessed after 6 days
[6] = test system: Moskito-Larven (Aedes aegypti); conditions: Wirkstoffkonzentration 1 ppm; 4th instar larvae, 20°C, after 24 hours
[7] = Wirkstoffkonzentration 0,05 (unit not given)

SMILES	mortality at 10 µg/mL [1]	mortality at 25 µg/mL [1]	Mortalitätsrate (Blattläuse (Aphis fabae); [7])	mortality at 0.02 % [2]	mortality at 0.05 % [2]	Gallenbildung ([3]; Wirkstoffkonzentration 0,1 %)	Mortalitätsrate [1]	Mortalitätsrate [6]	also measured
CCOP(=O)(SCc1csc(Cl)c1Cl)SCC(C)C (stereo not drawn) [Wirkstoff I, O-Äthyl-S-isobutyl-S-(2,3-dichlor-thienyl-4-methyl)-dithiophosphat]	80%	100%	100%	100%	100%	–	–	–	Mortalitätsrate (Blattläuse (Aphis fabae); Wirkstoffkonzentration 0,02 (unit not given)): 90%
CCOP(=O)(SCc1csc(Cl)c1Cl)SC(C)CC (stereo not shown) [Wirkstoff III]	100%	100%	–	100%	100%	–	–	–	Gallenbildung ([3]; Wirkstoffkonzentration 0,05 %): keine Gallenbildung; mortality at 0.01 % [2]: 100%; mortality at 0.25 µg/mL [4]: 100%; mortality at 0.5 µg/mL [4]: 100%; mortality at 1 µg/mL [4]: 100%
CNC(=O)CSP(=S)(OC)OC [Wirkstoff V1, 0,0-Dimethyl-S-(N-methyl-carbamoylmethyl)-phosphordi-thioat]	–	–	–	–	–	unwirksam	–	–	–
CCOP(=S)(OCC)SCc1ccsc1 [Wirkstoff V2, 0,0-Diäthyl-S-(tienyl-4-methyl)-dithiophosphat, reference compound]	–	–	unwirksam	–	–	unwirksam	unwirksam	unwirksam	Mortalitätsrate ([5]; Wirkstoffkonzentration 0,05 %): unwirksam; mortality at 0.1 % [2]: 80%
CCOP(=S)(OCC)SCc1csc(Cl)c1Cl [Wirkstoff V3, 0,0-Diäthyl-S-(2,3-dichlor-thienyl-4-methyl)-dithiophosphat]	–	–	–	–	–	–	unwirksam	unwirksam	Mortalitätsrate ([5]; Wirkstoffkonzentration 0,1 %): unwirksam

— EP0008361A1, “Halogen-substituted thiophene derivatives and method for their preparation” (priority 1978, dated 1980)
